The values below come from ChEMBL document CHEMBL4028900, “Design of Novel 3-Pyrimidinylazaindole CDK2/9 Inhibitors with Potent In Vitro and In Vivo Antitumor Efficacy in a Triple-Negative Breast Cancer Model” (J Med Chem, 2017).

The inhibition is the change of the read-out against control, counted positive when it falls. Read a low inhibition as little suppression. One may read the IC50 as the concentration needed to halve the response being measured. As usually defined, the thermodynamic solubility is solubility found after equilibrating the solid with the medium.

Converted amounts (≈) assume the structure as drawn. A value given as a limit tells only on which side of the number the result lay.

Data set [1] has as its target CDK2/Cyclin A2 (Homo sapiens) (UniProt P24941+P20248). The conditions noted are these: at 500 nM.
Description: Inhibition of CDK2/cyclin A (unknown origin) at 500 nM using histone H1 as substrate after 30 mins in presence of [33P]-gamma-ATP relative to control
Data set [2] concerns the target CDK9/cyclin T1 (Homo sapiens) (UniProt O60563+P50750). The conditions noted are these: at 500 nM.
For data set [3], the target named is CDK9/cyclin T1 (Homo sapiens, UniProt P50750). It counts as protein-complex assay.
In data set [4] the target is CDK2/Cyclin A2 (Homo sapiens, UniProt P24941). The data set is described as follows: Inhibition of CDK2/cyclin A (unknown origin) using histone H1 as substrate after 30 mins in presence of [33P]-gamma-ATP. It counts as protein-complex assay.
A short description of data set [5]: Thermodynamic equilibrium solubility of the compound in PBS.
Data set [6] concerns HCT-116. The data set is described as follows: Antiproliferative activity against human HCT116 cells after 72 hrs by SRB assay. As to conditions: HCT-116, 72 h. In general terms: The SRB assay estimates cell density from bound dye.
A short description of data set [7]: Thermodynamic equilibrium solubility of the compound in SIF.
Data set [8] in a line: Thermodynamic equilibrium solubility of the compound in water.
A short description of data set [9]: Thermodynamic equilibrium solubility of the compound in SGF.
Data set [10] concerns SH-SY5Y. In words: Antiproliferative activity against human SH-SY5Y cells after 24 hrs by MTT assay. It counts as functional, cell-based. A general note: Tetrazolium dyes change colour on reduction, which living cells bring about.

CDK9/cyclin T1, sequence (O60563 whole entry): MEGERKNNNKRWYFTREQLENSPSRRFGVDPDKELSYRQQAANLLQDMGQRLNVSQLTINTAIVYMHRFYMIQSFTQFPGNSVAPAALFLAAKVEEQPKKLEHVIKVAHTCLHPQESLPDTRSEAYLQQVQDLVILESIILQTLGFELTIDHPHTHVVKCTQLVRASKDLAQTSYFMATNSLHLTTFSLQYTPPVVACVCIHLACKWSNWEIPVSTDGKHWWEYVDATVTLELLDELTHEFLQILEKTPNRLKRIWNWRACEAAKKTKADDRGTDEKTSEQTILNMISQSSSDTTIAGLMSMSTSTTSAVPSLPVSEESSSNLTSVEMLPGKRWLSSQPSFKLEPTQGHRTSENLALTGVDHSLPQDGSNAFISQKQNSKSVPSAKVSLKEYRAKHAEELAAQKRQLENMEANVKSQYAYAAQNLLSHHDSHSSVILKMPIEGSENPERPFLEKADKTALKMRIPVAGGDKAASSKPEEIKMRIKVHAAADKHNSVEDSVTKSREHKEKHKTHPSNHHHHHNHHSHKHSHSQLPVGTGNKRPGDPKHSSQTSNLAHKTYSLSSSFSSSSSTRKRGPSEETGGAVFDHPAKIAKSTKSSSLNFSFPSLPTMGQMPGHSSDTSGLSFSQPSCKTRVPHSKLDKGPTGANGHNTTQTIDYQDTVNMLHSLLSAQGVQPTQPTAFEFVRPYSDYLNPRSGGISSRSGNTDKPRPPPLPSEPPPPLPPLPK
CDK9/cyclin T1, sequence (P50750 whole entry): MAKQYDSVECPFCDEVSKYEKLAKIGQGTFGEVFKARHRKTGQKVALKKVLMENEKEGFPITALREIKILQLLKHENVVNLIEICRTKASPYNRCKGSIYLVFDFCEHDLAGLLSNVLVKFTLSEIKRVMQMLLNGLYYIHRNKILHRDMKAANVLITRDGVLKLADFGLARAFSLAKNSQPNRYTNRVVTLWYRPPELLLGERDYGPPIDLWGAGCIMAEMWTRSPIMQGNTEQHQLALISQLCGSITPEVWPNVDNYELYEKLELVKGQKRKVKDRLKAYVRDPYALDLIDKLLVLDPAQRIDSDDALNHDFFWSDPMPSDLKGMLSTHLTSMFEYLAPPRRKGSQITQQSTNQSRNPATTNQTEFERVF

On to `COc1ccc(CCNc2nccc(-c3c[nH]c4ncccc34)n2)cc1OC`, for which the inhibition in [1] was 89.2%; in data set [2], 85%. Further, the 50% inhibitory concentration (IC50) was determined as 59 nM in data set [3] and 22 nM in data set [4].

As to `CC(=O)Nc1ccc(S(=O)(=O)n2cc(-c3ccnc(N)n3)c3cccnc32)cc1`, the results for the inhibition in data set [1] and in [2] were 36.3% and 44.2%, respectively.

In the case of `Nc1nccc(-c2cn(S(=O)(=O)c3ccc4c(c3)OCCO4)c3ncccc23)n1`, the inhibition in [1] is 48.7%; in [2], 52.2%.

`c1ccc(CCNc2nccc(-c3c[nH]c4ncccc34)n2)cc1`: the inhibition stood at 92.5% in data set [1] and 92.4% in data set [2]. Moreover, the solubility (thermodynamic) in [5] was less than 5 µg/mL; in data set [7], greater than 5 µg/mL; in data set [8], less than 5 µg/mL; in data set [9], 1500 µg/mL (≈ 4760 µM). Besides, the figures for the IC50 in data set [6], in [3] and in data set [4] were 560 nM, 20 nM and 10 nM, respectively.

With `c1cnc2[nH]cc(-c3ccnc(N4CCCC4)n3)c2c1`, the results for the inhibition in data set [1] and in [2] were 78.3% and 77.2%, respectively. The figures for the half-maximal inhibitory concentration (IC50) in data set [3] and in data set [4] were 450 nM and 160 nM, respectively.

Take `CSc1ccccc1-c1cnc2[nH]cc(-c3ccnc(N)n3)c2c1`: the inhibition in [1] was 78.7%; in data set [2], 93.7%. In addition, the IC50 is 45 nM in [3] and 24 nM in [4].

Regarding `CCc1ccccc1-c1cnc2[nH]cc(-c3ccnc(N)n3)c2c1`, the inhibition in data set [1] was 79.3%; in [2], 70.4%. Moreover, the half-inhibitory concentration (IC50) was 213 nM in [3] and 75 nM in data set [4].

Turning to `Cn1cncc1S(=O)(=O)n1cc(-c2ccnc(N)n2)c2cccnc21`, the results for the inhibition in data set [1] and in data set [2] were 55.2% and 50.3%, respectively.

For `COc1ccc(CCNc2nccc(-c3c[nH]c4ncccc34)n2)cc1`, the inhibition in data set [1] was determined as 97.7%; in data set [2] it was 91%. Moreover, the values for the half-maximal inhibitory concentration (IC50) in data set [6], in data set [3] and in data set [4] were 9500 nM, 38 nM and 4 nM, respectively.

Regarding `Cc1cccc(-c2cnc3[nH]cc(-c4ccnc(N)n4)c3c2)c1`, the values for the inhibition in data set [1] and in [2] were 84.8% and 82.6%, respectively.

Consider `Nc1nccc(-c2c[nH]c3ncc(-c4cccc(C(F)(F)F)c4)cc23)n1`, for which the inhibition in [1] came to 93.4%; in data set [2], 86.5%. Further, the figures for the concentration for half-maximal inhibition (IC50) in [3] and in [4] were 47 nM and 10 nM, respectively.

As for `Nc1nccc(-c2cn(S(=O)(=O)c3ccc(C(F)(F)F)cc3)c3ncccc23)n1`, the figures for the inhibition in data set [1] and in data set [2] were 28.4% and 50.9%, respectively.

For `Nc1nccc(-c2c[nH]c3ncc(-c4ccoc4)cc23)n1`, the thermodynamic solubility in data set [5] came to 10 µg/mL (≈ 36.1 µM); in [7] it was 1 µg/mL (≈ 3.61 µM); in [8] it was 20 µg/mL (≈ 72.1 µM); in data set [9] it was 800 µg/mL (≈ 2890 µM). In addition, the IC50 is 700 nM in [6] and 900 nM in data set [10].

As to `Nc1nccc(-c2c[nH]c3ncc(-c4cc5ccccc5s4)cc23)n1`, the values for the inhibition in data set [1] and in [2] were 92% and 86.4%, respectively. The IC50 was determined as 82 nM in data set [3] and 12 nM in [4].

Regarding `c1ccc2c(CCNc3nccc(-c4c[nH]c5ncccc45)n3)c[nH]c2c1`, the inhibition in [1] is 89.7%; in [2], 88%. The IC50 in [3] was 52 nM; in data set [4], 10 nM.

Turning to `Nc1nccc(-c2c[nH]c3ncc(-c4cccnc4)cc23)n1`, the thermodynamic solubility in [5] stood at 200 µg/mL (≈ 694 µM); in [7], 1 µg/mL (≈ 3.47 µM); in data set [8], 80 µg/mL (≈ 277 µM); in [9] it was 800 µg/mL (≈ 2770 µM). Besides, the IC50 in [6] stood at 700 nM; in data set [10], 1000 nM.

With `Nc1nccc(-c2cn(S(=O)(=O)c3ccc(Br)cc3)c3ncccc23)n1`, the inhibition stood at 28.1% in data set [1] and 31.2% in data set [2].

As for `COc1ccc2[nH]c(-c3cnc4[nH]cc(-c5ccnc(N)n5)c4c3)cc2c1`, the inhibition was 90.2% in data set [1] and 82.4% in data set [2]. In addition, the values for the IC50 in data set [3] and in data set [4] were 342 nM and 16 nM, respectively.

Consider `Nc1nccc(-c2c[nH]c3ncc(-c4ccc(Cl)cc4)cc23)n1`, for which the thermodynamic solubility in [5] amounted to 120 µg/mL (≈ 373 µM); in data set [7] it was 113 µg/mL (≈ 352 µM); in data set [8], 57.4 µg/mL (≈ 178 µM); in data set [9] it was 74.4 µg/mL (≈ 231 µM). Besides, the 50% inhibitory concentration (IC50) in data set [6] was found to be 500 nM; in data set [10], 900 nM.

On to `c1cnc2[nH]cc(-c3ccnc(N4CCOCC4)n3)c2c1`, for which the inhibition in data set [1] stood at 73.3%; in data set [2] it was 72.9%. For the same compound, the IC50 in data set [3] came out at 642 nM; in [4], 231 nM.

On to `Nc1nccc(-c2c[nH]c3ncc(-c4ccsc4)cc23)n1`, for which the inhibition was 95.1% in data set [1] and 93.5% in [2]. For the same compound, the IC50 amounted to 600 nM in [6], 3300 nM in data set [10], 35 nM in data set [3] and 1 nM in [4].

Consider `c1cnc2[nH]cc(-c3ccnc(N4CCCCC4)n3)c2c1`, for which the inhibition in [1] was determined as 74%; in data set [2] it was 71.9%. In addition, the results for the IC50 in data set [3] and in data set [4] were 800 nM and 300 nM, respectively.

On to `Nc1nccc(-c2c[nH]c3ncc(-c4ccc(OC(F)(F)F)cc4)cc23)n1`, for which the half-maximal inhibitory concentration (IC50) in data set [6] was found to be 1500 nM; in data set [10], 400 nM.

Consider `COc1ccc2ccccc2c1-c1cnc2[nH]cc(-c3ccnc(N)n3)c2c1`, for which the inhibition was determined as 24.2% in data set [1] and 47.4% in data set [2]. Further, the figures for the 50% inhibitory concentration (IC50) in [3] and in data set [4] were 625 nM and 1090 nM, respectively.

Take `Nc1nccc(-c2c[nH]c3ncc(-c4cc5ccccc5o4)cc23)n1`: the inhibition in [1] stood at 87.9%; in data set [2], 85%. In addition, the IC50 in [3] was 93 nM; in data set [4], 23 nM.

In the case of `Nc1nccc(-c2c[nH]c3ncc(-c4cccc5ccccc45)cc23)n1`, the results for the inhibition in data set [1] and in data set [2] were 79.2% and 84%, respectively. Also, the concentration for half-maximal inhibition (IC50) was 159 nM in [3] and 182 nM in [4].

Take `Nc1nccc(-c2cn(S(=O)(=O)c3ccc(F)cc3)c3ncccc23)n1`: the inhibition turned out to be 22.6% in data set [1] and 40% in [2].

For the compound `Nc1nccc(-c2cn(S(=O)(=O)c3ccc(OC(F)(F)F)cc3)c3ncccc23)n1`, the inhibition in [1] is 31.3%; in [2] it was 54.4%.

On to `CN1CCN(c2nccc(-c3c[nH]c4ncccc34)n2)CC1`, for which the inhibition was determined as 71.6% in data set [1] and 70.5% in [2]. The 50% inhibitory concentration (IC50) in data set [3] was 700 nM; in data set [4], 350 nM.
